Patent US8779004B2, “Stable emulsion formulations” (Amgen, Inc., priority 2006, dated 2014)
Marks after values point to notes of the source that are not given here.

Experiments:
[1] = Short-term storage stability of emulsions (drug conc., pH, particle size); format: physicochemical; settings: emulsion
Source text: This Example illustrates the effect of the storage temperature on short-term stability of the formulations of the invention as measured by pH and the size of the droplets. The results of short term stability of cinacalcet at different temperatures and varying TRIS buffer concentrations are presented in Table 8. Cinacalcet was stable in the emulsion formulation over 12 weeks. The pH of the emulsion is lower over time for both placebo and cinacalcet emulsions. The drop in pH is less at lower storage temperature and higher TRIS concentration.
The results of short-term stability of cinacalcet at different temperatures and varying DEA buffer concentrations are presented in Table 9. Cinacalcet was stable in the emulsion formulation over 12 weeks. pH of the emulsion is lower over time for both placebo and cinacalcet emulsion. The drop in pH is less at lower storage temperature and higher DEA concentration.

[2] = pH and particle size of crude cinacalcet emulsions with different oils and phospholipids; format: physicochemical; parameters: unit not given here; settings: emulsion; STG 20%; 1% Purified Soy Lecithin; after a single autoclaving cycle

Which results are given for `C[C@@H](NCCCc1cccc(C(F)(F)F)c1)c1cccc2ccccc12` [Cinacalcet, N-(1-(R)-(1-naphthyl)ethyl]-3-[3-(trifluoromethyl)phenyl]-1-aminopropane]?
Cinacalcet conc. ([1]; TRIS 5 mM, 5° C., 0 weeks): 4.43 mg/mL; D(4, 3) ([1]; TRIS 5 mM, 5° C., 0 weeks): 0.31 µm; pH ([1]; TRIS 5 mM, 5° C., 0 weeks): 8.80; Cinacalcet conc. ([1]; TRIS 5 mM, 5° C., 2 weeks): 4.18 mg/mL; D(4, 3) ([1]; TRIS 5 mM, 5° C., 2 weeks): 0.31 µm; pH ([1]; TRIS 5 mM, 5° C., 2 weeks): 8.69; Cinacalcet conc. ([1]; TRIS 5 mM, 5° C., 4 weeks): 4.38 mg/mL; D(4, 3) ([1]; TRIS 5 mM, 5° C., 4 weeks): 0.3 µm; pH ([1]; TRIS 5 mM, 5° C., 4 weeks): 8.65; Cinacalcet conc. ([1]; TRIS 5 mM, 5° C., 6 weeks): 4.33 mg/mL; D(4, 3) ([1]; TRIS 5 mM, 5° C., 6 weeks): 0.3 µm; pH ([1]; TRIS 5 mM, 5° C., 6 weeks): 8.59; Cinacalcet conc. ([1]; TRIS 5 mM, 5° C., 8 weeks): 4.47 mg/mL; D(4, 3) ([1]; TRIS 5 mM, 5° C., 8 weeks): 0.31 µm; pH ([1]; TRIS 5 mM, 5° C., 8 weeks): 8.60; Cinacalcet conc. ([1]; TRIS 5 mM, 5° C., 12 weeks): 4.32 mg/mL; D(4, 3) ([1]; TRIS 5 mM, 5° C., 12 weeks): 0.31 µm; pH ([1]; TRIS 5 mM, 5° C., 12 weeks): 8.50; Cinacalcet conc. ([1]; TRIS 5 mM, 40° C., 0 weeks): 4.43 mg/mL; D(4, 3) ([1]; TRIS 5 mM, 40° C., 0 weeks): 0.31 µm; pH ([1]; TRIS 5 mM, 40° C., 0 weeks): 8.80; Cinacalcet conc. ([1]; TRIS 5 mM, 40° C., 2 weeks): 4.17 mg/mL; D(4, 3) ([1]; TRIS 5 mM, 40° C., 2 weeks): 0.31 µm; pH ([1]; TRIS 5 mM, 40° C., 2 weeks): 8.41; Cinacalcet conc. ([1]; TRIS 5 mM, 40° C., 4 weeks): 4.36 mg/mL; D(4, 3) ([1]; TRIS 5 mM, 40° C., 4 weeks): 0.31 µm; pH ([1]; TRIS 5 mM, 40° C., 4 weeks): 8.29; Cinacalcet conc. ([1]; TRIS 5 mM, 40° C., 6 weeks): 4.29 mg/mL; D(4, 3) ([1]; TRIS 5 mM, 40° C., 6 weeks): 0.47 µm; pH ([1]; TRIS 5 mM, 40° C., 6 weeks): 8.20; Cinacalcet conc. ([1]; TRIS 5 mM, 40° C., 8 weeks): 4.45 mg/mL; D(4, 3) ([1]; TRIS 5 mM, 40° C., 8 weeks): 0.48 µm; pH ([1]; TRIS 5 mM, 40° C., 8 weeks): 8.11; Cinacalcet conc. ([1]; TRIS 5 mM, 40° C., 12 weeks): 4.33 mg/mL; D(4, 3) ([1]; TRIS 5 mM, 40° C., 12 weeks): 0.36 µm; pH ([1]; TRIS 5 mM, 40° C., 12 weeks): 8.12; Cinacalcet conc. ([1]; TRIS 20 mM, 5° C., 0 weeks): 4.92 mg/mL; D(4, 3) ([1]; TRIS 20 mM, 5° C., 0 weeks): 0.29 µm; pH ([1]; TRIS 20 mM, 5° C., 0 weeks): 9.13; Cinacalcet conc. ([1]; TRIS 20 mM, 5° C., 2 weeks): 4.47 mg/mL; D(4, 3) ([1]; TRIS 20 mM, 5° C., 2 weeks): 0.29 µm; pH ([1]; TRIS 20 mM, 5° C., 2 weeks): 8.98; Cinacalcet conc. ([1]; TRIS 20 mM, 5° C., 4 weeks): 4.79 mg/mL; D(4, 3) ([1]; TRIS 20 mM, 5° C., 4 weeks): 0.29 µm; pH ([1]; TRIS 20 mM, 5° C., 4 weeks): 8.99; Cinacalcet conc. ([1]; TRIS 20 mM, 5° C., 6 weeks): 4.72 mg/mL; D(4, 3) ([1]; TRIS 20 mM, 5° C., 6 weeks): 0.28 µm; pH ([1]; TRIS 20 mM, 5° C., 6 weeks): 8.87; Cinacalcet conc. ([1]; TRIS 20 mM, 5° C., 8 weeks): 4.91 mg/mL; D(4, 3) ([1]; TRIS 20 mM, 5° C., 8 weeks): 0.29 µm; pH ([1]; TRIS 20 mM, 5° C., 8 weeks): 9.02; Cinacalcet conc. ([1]; TRIS 20 mM, 5° C., 12 weeks): 4.76 mg/mL; D(4, 3) ([1]; TRIS 20 mM, 5° C., 12 weeks): 0.29 µm; pH ([1]; TRIS 20 mM, 5° C., 12 weeks): 8.93; Cinacalcet conc. ([1]; TRIS 20 mM, 40° C., 0 weeks): 4.92 mg/mL; D(4, 3) ([1]; TRIS 20 mM, 40° C., 0 weeks): 0.29 µm; pH ([1]; TRIS 20 mM, 40° C., 0 weeks): 9.13; Cinacalcet conc. ([1]; TRIS 20 mM, 40° C., 2 weeks): 4.48 mg/mL; D(4, 3) ([1]; TRIS 20 mM, 40° C., 2 weeks): 0.29 µm; pH ([1]; TRIS 20 mM, 40° C., 2 weeks): 8.82; Cinacalcet conc. ([1]; TRIS 20 mM, 40° C., 4 weeks): 4.75 mg/mL; D(4, 3) ([1]; TRIS 20 mM, 40° C., 4 weeks): 0.29 µm; pH ([1]; TRIS 20 mM, 40° C., 4 weeks): 8.79; Cinacalcet conc. ([1]; TRIS 20 mM, 40° C., 6 weeks): 4.73 mg/mL; D(4, 3) ([1]; TRIS 20 mM, 40° C., 6 weeks): 0.29 µm; pH ([1]; TRIS 20 mM, 40° C., 6 weeks): 8.75; Cinacalcet conc. ([1]; TRIS 20 mM, 40° C., 8 weeks): 4.96 mg/mL; D(4, 3) ([1]; TRIS 20 mM, 40° C., 8 weeks): 0.29 µm; pH ([1]; TRIS 20 mM, 40° C., 8 weeks): 8.76; Cinacalcet conc. ([1]; TRIS 20 mM, 40° C., 12 weeks): 4.82 mg/mL; D(4, 3) ([1]; TRIS 20 mM, 40° C., 12 weeks): 0.29 µm; pH ([1]; TRIS 20 mM, 40° C., 12 weeks): 8.63; D(4, 3) [2]: 0.94^a
